Assay [1] concerns the target T1, human B1R receptor (bradykinin 1 receptor) (Homo sapiens, UniProt P46663).
T1 construct: host or cells: CHO K1 cells (hB1R cells)
T1 sequence (P46663 1-353): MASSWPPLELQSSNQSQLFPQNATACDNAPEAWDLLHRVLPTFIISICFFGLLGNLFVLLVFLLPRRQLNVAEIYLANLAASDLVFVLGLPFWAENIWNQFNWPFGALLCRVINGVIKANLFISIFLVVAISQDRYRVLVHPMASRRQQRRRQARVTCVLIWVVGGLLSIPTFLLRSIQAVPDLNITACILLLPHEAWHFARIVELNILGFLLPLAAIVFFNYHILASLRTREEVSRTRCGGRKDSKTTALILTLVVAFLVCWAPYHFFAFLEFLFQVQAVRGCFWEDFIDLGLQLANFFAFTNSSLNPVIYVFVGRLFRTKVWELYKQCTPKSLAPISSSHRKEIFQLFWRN
Kind of assay: FLIPR Ca2+ assay (Fluo-4) on CHO K1 cells stably transfected with the human B1R gene; % activation and % inhibition at 10 μM. Particulars: CHO K1 hB1R cells, Ca2+ inflow after 0.5 nM Lys-Des-Arg9-bradykinin; for inhibition at 10 µM: CHO-K1, test substance 10 μM, read-out: B1R antagonism, human [10 μM] % inhibition. The assay is classed as cell-based. In short, it runs like this:
(§1)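 Fluo-4 Ca2+ flux on FLIPR in stable hB1R or rB1R CHO K1 lines, two additions. Agonism: 10 µM compound versus 0.5 nM Lys-Des-Arg9-BK (human) or 100 nM Des-Arg9-BK (rat); antagonism: same agonists applied 10 min later, suppression expressed against maximum achievable inhibition.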

For assay [2], the target named is T2, B1R receptor of the rat (bradykinin 1 receptor) (Rattus norvegicus, UniProt P97583).
T2 construct: host or cells: CHO K1 cells (rB1R cells)
T2 sequence (P97583 1-337): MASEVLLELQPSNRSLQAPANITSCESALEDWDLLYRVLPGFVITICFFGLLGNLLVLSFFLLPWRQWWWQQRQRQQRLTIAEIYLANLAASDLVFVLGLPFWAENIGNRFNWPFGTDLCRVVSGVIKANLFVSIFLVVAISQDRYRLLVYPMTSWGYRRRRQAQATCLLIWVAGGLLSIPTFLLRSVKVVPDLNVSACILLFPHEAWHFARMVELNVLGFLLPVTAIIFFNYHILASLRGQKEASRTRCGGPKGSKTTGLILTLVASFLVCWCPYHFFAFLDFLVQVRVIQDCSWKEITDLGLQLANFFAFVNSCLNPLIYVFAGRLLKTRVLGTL
Put plainly: FLIPR Ca2+ assay (Fluo-4) on CHO K1 cells stably transfected with the B1R gene of the rat; % activation and % inhibition at 10 μM. Conditions: CHO K1 rB1R cells, Ca2+ inflow after 100 nM Des-Arg9-bradykinin; for inhibition at 10 µM: CHO-K1, test substance 10 μM, read-out: B1R antagonism, rat [10 μM] % inhibition. In kind it is cell-based. In a few lines: as §1

Broadly, the inhibition is the drop in the measured response relative to a control, in per cent. For the compound `O=C(COCC1CCCN1S(=O)(=O)c1c(Cl)cc(Cl)cc1Cl)N1CCC(O)(c2cccnc2)CC1` (centres unmarked) [Example 204, 1-(4-hydroxy-4-(pyridin-3-yl)piperidin-1-yl)-2-((1-(2,4,6-trichlorophenylsulfonyl)pyrrolidin-2-yl)methoxy)ethanone], the results for the inhibition at 10 µM in assay [1] and in assay [2] were 104% and 98%, respectively.

On to “2-((2-(3,4-dichlorophenylsulfonyl)-1,2,3,4-tetrahydroisoquinolin-3-yl)methoxy)-1-(4-hydroxy-4-phenylpiperidin-1-yl)ethanone [Example 76]”, for which, in assay [1] (test substance 10 μM), the “B1R antagonism, human [10 μM] % inhibition” value was 9.96%. Besides, in assay [2] (test substance 10 μM), the “B1R antagonism, rat [10 μM] % inhibition” value was found to be 43.59%.

For `O=C(COC1CCN(S(=O)(=O)c2c(Cl)cc(Cl)cc2Cl)C1)N1CCC(O)(c2ccccn2)CC1` (centres unmarked) [Example 98, 1-(4′-hydroxy-3′,4′,5′,6′-tetrahydro-2′H-[2,4′]bipyridinyl-1′-yl)-2-[1-(2,4,6-trichloro-phenylsulfonyl)-pyrrolidin-3-yloxy]-ethanone], the inhibition at 10 µM in assay [1] is 29.1%; in assay [2] it was 31.9%.

With `COc1cc(C)c(S(=O)(=O)N2CCCCC2COCC(=O)N2CCC(O)(c3ccc(Br)cc3)CC2)c(C)c1` (centres unmarked) [Example 243, 1-(4-(4-bromophenyl)-4-hydroxypiperidin-1-yl)-2-((1-(4-methoxy-2,6-dimethylphenylsulfonyl)piperidin-2-yl)methoxy)ethanone], the inhibition at 10 µM turned out to be 104% in assay [1] and 96.8% in assay [2].

As for `COc1cc(C)c(S(=O)(=O)N(C)CCOCC(=O)N2CCC(O)(c3ccccc3)CC2)c(C)c1` [Example 137, N-(2-(2-(4-hydroxy-4-phenylpiperidin-1-yl)-2-oxoethoxy)ethyl)-4-methoxy-N,2,6-trimethylphenylsulfonamide], the inhibition at 10 µM was determined as 101% in assay [1] and 99.3% in assay [2].

For the compound `COc1cc(C)c(S(=O)(=O)N2CCCCC2COCC(=O)N2CCC(O)(Cc3ccccc3)CC2)c(C)c1` (centres unmarked) [Example 245, 1-(4-benzyl-4-hydroxypiperidin-1-yl)-2-((1-(4-methoxy-2,6-dimethylphenylsulfonyl)piperidin-2-yl)methoxy)ethanone], the inhibition at 10 µM in assay [1] is 99.8%; in assay [2], 97.7%.

On to `COc1cc(C)c(S(=O)(=O)N2Cc3ccccc3CC2COCC(=O)N2CCC(O)(c3cccnc3)CC2)c(C)c1C` (centres unmarked) [Example 195, 1-(4-hydroxy-4-(pyridin-3-yl)piperidin-1-yl)-2-((2-(4-methoxy-2,3,6-trimethylphenylsulfonyl)-1,2,3,4-tetrahydroisoquinolin-3-yl)methoxy)ethanone], for which the inhibition at 10 µM in assay [1] was determined as 97.8%; in assay [2], 93.5%.

With `Cc1cc(S(=O)(=O)N(C)CCOCC(=O)N2CCC(O)(c3cccnc3)CC2)c(C)cc1Cl` [Example 149, 4-chloro-N-(2-(2-(4-hydroxy-4-(pyridin-3-yl)piperidin-1-yl)-2-oxoethoxy)ethyl)-N,2,5-trimethylphenylsulfonamide], the figures for the inhibition at 10 µM in assay [1] and in assay [2] were 99.1% and 100%, respectively.

Take `O=C(COCC1Cc2ccccc2CN1S(=O)(=O)c1ccc(F)cc1)N1CCC(O)(Cc2ccccc2)CC1` (centres unmarked) [Example 75, 1-(4-benzyl-4-hydroxy-piperidin-1-yl)-2-[2-(4-fluoro-phenylsulfonyl)-1,2,3,4-tetrahydro-isoquinolin-3-ylmethoxy]-ethanone]: the inhibition at 10 µM turned out to be 11% in assay [1] and 19.2% in assay [2].

In the case of `Cc1ccc(S(=O)(=O)N2CCC(OCC(=O)N3CCC(O)(Cc4ccccc4)CC3)C2)cc1` (centres unmarked) [Example 24, 1-(4-benzyl-4-hydroxy-piperidin-1-yl)-2-[1-(toluene-4-sulfonyl)-pyrrolidin-3-yloxy]-ethanone], the inhibition at 10 µM was determined as 12.1% in assay [1] and 6.88% in assay [2].

Values taken from patent US8580965B2, “Substituted sulfonamide compounds” (Gruenenthal GmbH, priority 2006, dated 2013).
